Reference: patent US7732468B2, “3-aryl-6-aryl-[ 1,2,4]triazolo[3,4-b][1,3,4]thiadiazoles and related compounds as activators of caspases and inducers of apoptosis and the use thereof” (Cytovia, Inc., priority 2006, dated 2010)

Experiments:
Type in all cases: cell-based
[1] = test system: Human breast cancer cell lines T-47D; experiment: Caspase cascade activation (Ac-DEVD-R110 fluorogenic substrate) in T-47D cells; details: T47D cells, 48 h incubation, read-out: caspase potency EC50 T47D
How it was run: (§1)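 48 h compound exposure (0.016–10 μM final), 37 °C, 5% CO2; add 14 μM Ac-DEVD-R110 in lysolecithin/DTT/PIPES pH 7.2; RT 3 h; fluorescence 485/530 nm. Net RFU vs untreated control → EC50 by sigmoidal fit.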

[2] = test system: human colon carcinoma cell line HCT116; experiment: Caspase cascade activation in HCT116 cells; details: HCT-116, 48 h incubation, read-out: caspase potency EC50 HCT116
How it was run: as §1

[3] = test system: human lymphoma cell line Raji; experiment: Caspase cascade activation in Raji cells; details: RAJ1 cells, 48 h incubation, read-out: caspase potency EC50 RAJ1
How it was run: as §1

[4] = test system: human B cell lymphoblastoid cell line Ramos; experiment: Caspase cascade activation in Ramos cells; details: 48 h incubation, read-out: caspase potency EC50 RAMOS
How it was run: as §1

[5] = test system: human hepatocellular carcinoma cell line SNU398; experiment: Caspase cascade activation in SNU398 cells; details: SNU-398, 48 h incubation, read-out: caspase potency EC50 SNU398
How it was run: as §1

[6] = test system: human Burkitt's lymphoma cell line Namalwa; experiment: Caspase cascade activation in Namalwa cells; details: Burkitts lymphoma cell, 48 h incubation, read-out: caspase potency EC50 Namalwa
How it was run: as §1

[7] = test system: human cancer cell line H1299; experiment: Caspase cascade activation in H1299 cells; details: NCI-H1299, 48 h incubation, read-out: caspase potency EC50 H1299
Protocol: Human breast cancer cell lines T-47D, human hepatocellular carcinoma cell line SNU398, human colon carcinoma cell line HCT116, human cancer cell line H11299, human Burkitt's lymphoma cell line Namalwa, human lymphoma cell line Raji, and human B cell lymphoblastoid cell line Ramos were grown according to media component mixtures designated by American Type Culture Collection+10% FCS (Invitrogen Corporation), in a 5% CO2-95% humidity incubator at 37° C. T-47D and H1299 cells were maintained at a cell density between 50 and 80% confluency at a cell density of 0.1 to 0.6×10^6 cells/mL. Cells were harvested at 600×g and resuspended at 0.65×10^6 cells/mL into appropriate media+10% FCS. An aliquot of 22.5 μL of cells was added to a well of a 384-well microtiter plate containing 2.5 μL of a 10% DMSO in RPMI-1640 media solution containing 0.16 to 100 μM of 6-(3,4-dimethoxyphenyl)-3-(2-methoxyphenyl)-[1,2,4]triazolo[3,4-b][1,3,4]thiadiazole or other test compound (0.016 to 10 μM final). An aliquot of 22.5 μL of cells was added to a well of a 384-well microtiter plate containing 2.5 μL of a 10% DMSO in RPMI-1640 media solution without test compound as the control sample. The samples were mixed by agitation and then incubated at 37° C. for 48 h in a 5% CO2-95% humidity incubator. After incubation, the samples were removed from the incubator and 25 μL of a solution containing 14 μM of N-(Ac-DEVD)-N′-ethoxycarbonyl-R110 (SEQ ID No.:1) fluorogenic substrate (Cytovia, Inc.; WO99/18856), 20% sucrose (Sigma), 20 mM DTT (Sigma), 200 mM NaCl (Sigma), 40 mM Na PIPES buffer pH 7.2 (Sigma), and 500 μg/mL lysolecithin (Calbiochem) was added. The samples were mixed by agitation and incubated at room temperature. Using a fluorescent plate reader (Model SPECTRAfluor Plus, Tecan), an initial reading (T=0) was made approximately 1-2 min after addition of the substrate solution, employing excitation at 485 nm and emission at 530 nm, to determine the background fluorescence of the control sample. After the 3 h incubation, the samples were read for fluorescence as above (T=3 h).
The Relative Fluorescence Unit values (RFU) were used to calculate the sample readings as follows: RFU(T=3h)−Control RFU(T=0)=Net RFU(T=3h)
The activity of caspase cascade activation was determined by the ratio of the net RFU value for 6-(3,4-dimethoxyphenyl)-3-(2-methoxyphenyl)-[1,2,4]triazolo[3,4-b][1,3,4]thiadiazole (Example I) or other test compound to that of control samples. The EC50 (nM) was determined by a sigmoidal dose-response calculation (Prism 3.0, GraphPad Software Inc.).

[8] = test system: Human breast cancer cell lines T-47D; experiment: Inhibition of cell proliferation (GI50, CellTiter-Glo) in T-47D cells; details: T47D cells, 48 h incubation
Protocol: (§2) Human breast cancer cell lines T-47D, MX1 and MDAMB435, human colon carcinoma cell line HCT116, human leukemia cell line K562, human lymphoma cell line Raji, human B cell lymphoblastoid cell line Ramos, and human Burkitt's lymphoma cell line Namalwa were grown and harvested as in Example 14. An aliquot of […] of cells (4.4×10^4 cells/mL) was added to a well of a 96-well microtiter plate containing 5 μL of a 10% DMSO in RPMI-1640 media solution containing 10 nM to 100 μM of 6-(3,4-dimethoxyphenyl)-3-(2-methoxyphenyl)-[1,2,4]triazolo[3,4-b][1,3,4]thiadiazole (1 nM to 10 μM final). An aliquot of 45 μL of cells was added to a well of a 96-well microtiter plate containing 5 μL of a 10% DMSO in RPMI-1640 media solution without compound as the control sample for maximal cell proliferation (LMax). The samples were mixed by agitation and then incubated at 37° C. for 48 h in a 5% CO2-95% humidity incubator. After incubation, the samples were removed from the incubator and 25 μL of CellTiter-Glo™ reagent (Promega) was added. The samples were mixed by agitation and incubated at room temperature for 10-15 min. Plates were then read using a luminescent plate reader (Model SPECTRAfluor Plus, Tecan) to give Ltest values.
(§3) The samples were mixed by agitation and then incubated at 37° C. for 0.5 h in a 5% CO2-95% humidity incubator. After incubation, the samples were removed from the incubator and 25 μL of CellTiter-Glo™ reagent (Promega) was added. The samples were mixed by agitation and incubated at […] 10-15 min at room temperature in a 5% CO2-95% humidity incubator. Fluorescence was read as above, (LStart) defining luminescence for initial cell number used as baseline in GI50 determinations.
(§4) GI50 (dose for 50% inhibition of cell proliferation) is the concentration where [(LTest−LStart)/(LMax−LStart)]=0.5.

[9] = test system: Human breast cancer cell lines MX1; experiment: Inhibition of cell proliferation (GI50) in MX1 cells; details: 48 h incubation
Protocol: as §2, §3, §4

[10] = test system: Human breast cancer cell lines MDAMB435; experiment: Inhibition of cell proliferation (GI50) in MDAMB435 cells; details: MDA MB 435 cells, 48 h incubation
Protocol: as §2, §3, §4

[11] = test system: human colon carcinoma cell line HCT116; experiment: Inhibition of cell proliferation (GI50) in HCT116 cells; details: HCT 116 cells, 48 h incubation
Protocol: as §2, §3, §4

[12] = test system: human Burkitt's lymphoma cell line Namalwa; experiment: Inhibition of cell proliferation (GI50) in Namalwa cells; details: Burkitts lymphoma cell, 48 h incubation
Protocol: as §2, §3, §4

[13] = test system: human lymphoma cell line Raji; experiment: Inhibition of cell proliferation (GI50) in Raji cells; details: 48 h incubation
Protocol: as §2, §3, §4

[14] = test system: human B cell lymphoblastoid cell line Ramos; experiment: Inhibition of cell proliferation (GI50) in Ramos cells; details: 48 h incubation
Protocol: as §2, §3, §4

[15] = test system: human leukemia cell line K562; experiment: Inhibition of cell proliferation (GI50) in K562 cells; details: 48 h incubation
Protocol: as §2, §3, §4

EC50 [1]	EC50 [2]	EC50 [3]	EC50 [4]	EC50 [5]	EC50 [6]	EC50 [7]	GI50 [8]	GI50 [9]	GI50 [10]	GI50 [11]	GI50 [12]	GI50 [13]	GI50 [14]	GI50 [15]	Structure (SMILES)
3680 nM	5450 nM	> 10000 nM	> 10000 nM	1860 nM	> 10000 nM	3160 nM	2730 nM	4080 nM	253 nM	–	–	–	–	–	CCc1cc(-c2nnc3sc(-c4ccc(C)cc4)nn23)n(C)n1 [A, 3-(3-Ethyl-1-methyl-1H-pyrazol-5-yl)-6-p-tolyl-[1,2,4]triazolo[3,4-b][1,3,4]thiadiazole]
4030 nM	4570 nM	> 10000 nM	566 nM	1720 nM	574 nM	–	900 nM	9000 nM	–	–	–	–	–	–	CCc1cc(-c2nnc3sc(-c4ccc(OC)cc4)nn23)n(C)n1 [C, 3-(3-Ethyl-1-methyl-1H-pyrazol-5-yl)-6-(4-methoxyphenyl)-[1,2,4]triazolo[3,4-b][1,3,4]thiadiazole]
561 nM	5020 nM	274 nM	235 nM	507 nM	253 nM	3000 nM	3850 nM	4000 nM	894 nM	6220 nM	7870 nM	9400 nM	3000 nM	2490 nM	COc1ccc(-c2nn3c(-c4ccccc4C)nnc3s2)cc1OC [E, 6-(3,4-Dimethoxyphenyl)-3-o-tolyl-[1,2,4]triazolo[3,4-b][1,3,4]thiadiazole]
636 nM	1020 nM	617 nM	585 nM	–	580 nM	–	167 nM	–	–	497 nM	138 nM	–	–	–	CCN(CC)c1ccc(-c2nn3c(-c4n[nH]c5c4CCC5)nnc3s2)cc1 [Entry K1, 6-(4-Diethylaminophenyl)-3-(1,4,5,6-tetrahydrocyclopenta[c]pyrazol-3-yl)-[1,2,4]triazolo[3,4-b][1,3,4]thiadiazole]
395 nM	67 nM	81 nM	40 nM	34 nM	39 nM	–	200 nM	–	–	89 nM	16 nM	–	–	–	Cc1ccc(-c2nn3c(-c4n[nH]c5c4CCC5)nnc3s2)cc1 [Entry M1, 6-(4-Methylphenyl)-3-(1,4,5,6-tetrahydrocyclopenta[c]pyrazol-3-yl)-[1,2,4]triazolo[3,4-b][1,3,4]thiadiazole]
2690 nM	5160 nM	5270 nM	5300 nM	4460 nM	5320 nM	5310 nM	4030 nM	4000 nM	1070 nM	7920 nM	9040 nM	8000 nM	4000 nM	2730 nM	COc1ccc(-c2nn3c(-c4ccccc4Cl)nnc3s2)cc1OC [F, 3-(2-Chlorophenyl)-6-(3,4-dimethoxyphenyl)-[1,2,4]triazolo[3,4-b][1,3,4]thiadiazole]
563 nM	537 nM	501 nM	253 nM	261 nM	344 nM	733 nM	217 nM	400 nM	48 nM	844 nM	520 nM	700 nM	120 nM	626 nM	COc1ccccc1-c1nnc2sc(-c3ccc(Br)cc3)nn12 [H, 6-(4-Bromophenyl)-3-(2-methoxyphenyl)-[1,2,4]triazolo[3,4-b][1,3,4]thiadiazole]
563 nM	523 nM	521 nM	349 nM	300 nM	412 nM	808 nM	261 nM	1030 nM	136 nM	2000 nM	2000 nM	2000 nM	2000 nM	2080 nM	COc1ccc(-c2nn3c(-c4ccccc4OC)nnc3s2)cc1OC [I, 6-(3,4-dimethoxyphenyl)-3-(2-methoxyphenyl)-[1,2,4]triazolo[3,4-b][1,3,4]thiadiazole]
